According to patent publication US10301272B2, “Carboxamide or sulfonamide substituted thiazoles and related derivatives as modulators for the orphan nuclear receptor ROR[γ]” (Phenex Pharmaceuticals AG, priority 2012, dated 2019):
Where two headings read alike, the source gives them in different places.

Biological target: RORγ (Homo sapiens, UniProt P51449)
Assay: RORγ Gal4 Reporter Gene Assay
Format: cell-based
Procedure: Determination of a ligand mediated Gal4 promoter driven transactivation to quantify ligand binding to RORγ was performed as follows: DNA encoding three different RORγ protein fragments was cloned into vector pCMV-BD (Stratagene). Expression was under control of a CMV promoter and as fusion to the DNA-binding domain of the yeast protein GAL4. Other vectors used were pFR-Luc (Stratagene) as regulated reporter plasmid. pFR-Luc contains a synthetic promoter with five tandem repeats of the yeast GAL4 binding sites that control expression of the Photinus pyralis (American firefly) luciferase gene. In order to improve experimental accuracy the plasmid pRL-CMV was cotransfected. pRL-CMV contains the constitutive CMV promoter, controlling the expression of the Renilla reniformis luciferase.
The medium is supplemented with 10% fetal bovine serum, 0.1 mM nonessential amino acids, 1 mM sodium pyruvate, 1% Glutamax and 100 units Penicilin/[…] per mL at 37° C. in 5% CO2.
For the assay, […] were plated per well in 96 well plates in 100 μL per well, incubated over night at 37° C. in 5% CO2. […] About 4 h after addition of the transfection solution, fresh Minimal Essential Medium (MEM, same composition as used for plating cells, but without serum) was added. Then compound stocks, prediluted in MEM (same composition as used for plating cells) were added (final vehicle concentration not exceeding 0.1%).
All experiments were done at least in triplicates.

[1] = firefly (FF) luciferase, 293T cells, read-out: pIC50 (FF) (converted)
[2] = renilla normalised (RENnorm) luciferase, 293T cells, read-out: pIC50 (REN) (converted)
[3] = firefly (FF) luciferase, 293T cells
[4] = renilla normalised (RENnorm) luciferase, 293T cells

Sequence of RORγ (P51449 whole entry, looked up, the tested form may be a part): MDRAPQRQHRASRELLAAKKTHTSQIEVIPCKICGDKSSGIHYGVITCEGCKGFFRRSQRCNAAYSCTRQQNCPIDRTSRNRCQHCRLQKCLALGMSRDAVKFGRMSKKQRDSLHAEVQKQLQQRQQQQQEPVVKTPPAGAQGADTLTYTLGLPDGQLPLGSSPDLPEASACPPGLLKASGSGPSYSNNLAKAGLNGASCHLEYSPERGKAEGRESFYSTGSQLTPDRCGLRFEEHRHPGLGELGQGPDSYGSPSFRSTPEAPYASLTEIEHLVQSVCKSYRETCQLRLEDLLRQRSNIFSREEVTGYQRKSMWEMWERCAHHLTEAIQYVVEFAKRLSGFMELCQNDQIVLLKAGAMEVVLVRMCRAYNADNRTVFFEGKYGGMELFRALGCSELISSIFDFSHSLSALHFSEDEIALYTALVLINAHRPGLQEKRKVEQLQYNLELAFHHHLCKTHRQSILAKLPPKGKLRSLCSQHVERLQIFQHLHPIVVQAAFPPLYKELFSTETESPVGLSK

Row | SMILES | pIC50 (FF) | pIC50 (REN) | other results
1 | CC1CCN(C(=O)c2nc(C(=O)NC3CC34CCOCC4)sc2-c2ccc(S(=O)(=O)NC(C)(C)C)c3ccccc23)CC1 (stereo not drawn) [304/18] | nt/7.5/7.7 | nt/7.5/7.7 | 
2 | CC(C)(C)NS(=O)(=O)c1ccc(-c2sc(C(=O)N[C@H]3C[C@H](C(=O)O)C3)nc2CC2CCC2)c2ccccc12 [21/17] |  |  | IC50 [1]: 7.94 nM; IC50 [2]: 6.31 nM
3 | CC(C)(C)NS(=O)(=O)c1ccc(-c2nc(C(=O)NC3CCS(=O)(=O)CC3)sc2CC2CCCCC2)c2ccccc12 [25/2] | nt/9.0/9.0 | nt/9.0/9.0 | 
4 | CC(C)(C)NS(=O)(=O)c1ccc(-c2sc(C(=O)NCC(C)(C)c3nn[nH]n3)nc2CC2CCCCC2)c2ccccc12 [6/59] | nt/7.6/7.8 | nt/7.6/7.8 | 
5 | CC(C)(C)NS(=O)(=O)c1ccc(-c2sc(C(=O)NC3CCS(=O)(=O)CC3)nc2CC2CCC(F)(F)CC2)c2ccccc12 [21/12] | nt/8.0/8.2 | nt/8.0/8.2 | 
6 | CC(C)(O)CNC(=O)c1nc(C(=O)N2CCCCC2(C)C)c(-c2ccc(S(=O)(=O)NC(C)(C)C)c3ccccc23)s1 [304/6] | nt/6.6/6.8 | nt/6.6/6.8 | 
7 | CCC(C)(C)NS(=O)(=O)c1ccc(-c2sc(C(=O)NCC(C)(C)O)nc2CC2CCC2)c(OC(F)(F)F)c1 [21/25] | nt/7.7/7.8 | nt/7.7/7.8 | 
8 | CC1CCN(C(=O)c2nc(C(=O)N3CC4(CCOCC4)C3)sc2-c2ccc(S(=O)(=O)NC(C)(C)C)c3ccccc23)CC1 [304/17] | nt/7.2/7.2 | nt/7.2/7.2 | 
9 | CC(C)(C)NS(=O)(=O)c1ccc(-c2sc(C(=O)N3CCS(=O)(=O)CC3)nc2CC2CCCCC2)c2ccccc12 [6/55] | nt/8.0/8.2 | nt/8.0/8.2 | 
10 | CC(C)(C)c1cc(-c2nc(C(=O)NC3CCS(=O)(=O)CC3)oc2CC2CCCCC2)cc(C2(C)CC2)c1 [103/3] | nt/6.6/6.6 | nt/6.6/6.6 | 
11 | CCCc1nc(C(=O)NC2CCS(=O)(=O)CC2)sc1-c1ccc(S(=O)(=O)NC(C)(C)C)c2ccccc12 [300/7] | nt/7.7/7.9 | nt/7.7/7.9 | 
12 | Cc1c(-c2sc(C(=O)NC3CCS(=O)(=O)CC3)nc2CC2CCCCC2)cc(Cl)c(S(=O)(=O)NC(C)(C)C)c1Cl [6/63] | nt/9.2/8.9 | nt/9.2/8.9 | 
13 | C[C@H](NC(=O)c1cc(-c2sc(C(=O)NCC(C)(C)c3nnn[nH]3)nc2CC2CCCCC2)cc(C2(C)CC2)c1)C(F)(F)F [6/62] | nt/7.5/7.5 | nt/7.5/7.5 | 
14 | CCC(C)(C)NS(=O)(=O)c1ccc(-c2sc(C(=O)NC3CCS(=O)(=O)CC3)nc2C(=O)N2CCC(C)CC2)c2ccccc12 [304/14] | nt/7.5/7.6 | nt/7.5/7.6 | 
15 | CC1CCN(C(=O)c2nc(C(=O)NCC(C)(C)O)sc2-c2ccc(S(=O)(=O)NCC(C)(C)O)c3ccccc23)CC1 [304/22] | nt/5.8/5.8 | nt/5.8/5.8 | 
16 | CC(C)(C)NS(=O)(=O)c1ccc(-c2sc(C(=O)NC3CCS(=O)(=O)CC3)nc2-c2cccc(C#N)c2)c2ccccc12 [300/15] | nt/7.3/7.4 | nt/7.3/7.4 | 
17 | CC1CCN(C(=O)c2nc(C(=O)NCC(C)(C)O)sc2-c2ccc(S(=O)(=O)NCC(C)(C)C)c3ccccc23)CC1 [304/19] | nt/7.4/7.5 | nt/7.4/7.5 | 
18 | C[C@H](NS(=O)(=O)c1ccc(-c2sc(C(=O)NCC(C)(C)O)nc2CC2CCC2)c(OC(F)F)c1)C(F)(F)F [21/21] | nt/7.7/7.8 | nt/7.7/7.8 | 
19 | CC(C)(C)NS(=O)(=O)c1ccc(-c2oc(C(=O)NCCC(C)(C)C(=O)O)nc2CC2CCCCC2)c2ccccc12 [100/21] | nt/7.2/7.1 | nt/7.2/7.1 | 
20 | CC(C)(C)NS(=O)(=O)c1ccc(-c2sc(C(=O)N3CC(S(C)(=O)=O)C3)nc2CC2CCCCC2)c2ccccc12 [6/57] | nt/7.9/8.2 | nt/7.9/8.2 | 

Row | SMILES | pIC50 (FF) | pIC50 (REN) | other results
21 | CC1CCN(C(=O)c2nc(C(=O)N3CC4(CCS(=O)(=O)CC4)C3)oc2-c2ccc(S(=O)(=O)NC(C)(C)C)c3ccccc23)CC1 [Example 306, N-(tert-Butyl)-4-(2-(7,7-dioxido-7-thia-2-azaspiro[3.5]nonane-2-carbonyl)-4-(4-methyl-piperidine-1-carbonyl)oxazol-5-yl)naphthalene-1-sulfonamide] | nt/5.6/5.6 | nt/5.6/5.6 | 
22 | CC(C)(C)NS(=O)(=O)c1ccc(-c2sc(C(=O)NC3CCS(=O)(=O)CC3)nc2-c2cccnc2)c2ccccc12 [300/12] | nt/6.1/6.2 | nt/6.1/6.2 | 
23 | CCCc1nc(C(=O)NCC(C)(C)O)sc1-c1ccc(S(=O)(=O)N[C@@H](C)C(F)(F)F)c2ccccc12 [300/9] | nt/7.9/7.9 | nt/7.9/7.9 | 
24 | C[C@H](NS(=O)(=O)c1ccc(-c2sc(C(=O)NCC(C)(C)O)nc2CC2CCC2)c(OC(F)(F)F)c1)C(F)(F)F [21/18] | nt/8.0/8.1 | nt/8.0/8.1 | 
25 | CCCc1nc(C(=O)N[C@H]2C[C@H](C(=O)O)C2)sc1-c1ccc(S(=O)(=O)NC(C)(C)C)c2ccccc12 [300/8] |  |  | IC50 [1]: 79.4 nM; IC50 [2]: 63.1 nM
26 | CC(C)(C)NS(=O)(=O)c1cc(Cl)c(-c2sc(C(=O)N[C@H]3C[C@H](C(=O)O)C3)nc2CC2CCCCC2)cc1Cl [19/11] | nt/7.6/7.7 | nt/7.6/7.7 | 
27 | CC(C)(C)NS(=O)(=O)c1ccc(-c2sc(C(=O)NC3CCS(=O)(=O)CC3)nc2CC2CCC2)c2ccccc12 [21/16] | nt/8.4/8.4 | nt/8.4/8.4 | 
28 | CC(C)(C)NS(=O)(=O)c1ccc(-c2sc(C(=O)NCC(C)(C)c3noc(=O)[nH]3)nc2CC2CCCCC2)c2ccccc12 [6/60] | nt/8.5/8.7 | nt/8.5/8.7 | 
29 | CC1CCN(C(=O)c2nc(C(=O)NCC(C)(C)O)sc2-c2ccc(S(=O)(=O)NC3CCOC3)c3ccccc23)CC1 (stereo not drawn) [304/24] | nt/6.6/6.7 | nt/6.6/6.7 | 
30 | CCC(C)(C)NS(=O)(=O)c1ccc(-c2sc(C(=O)N3CC4(C3)CS(=O)(=O)C4)nc2C(=O)N2CCC(C)CC2)c(Cl)c1C [301/2] | nt/7.7/7.8 | nt/7.7/7.8 | 
31 | C[C@H](NS(=O)(=O)c1ccc(-c2sc(C(=O)NCC(C)(C)O)nc2CC2CCC(F)(F)CC2)c2ccccc12)C(F)(F)F [21/23] | nt/8.7/8.6 | nt/8.7/8.6 | 
32 | CC(C)(C)NS(=O)(=O)c1ccc(-c2sc(C(=O)N[C@H]3C[C@H](C(=O)O)C3)nc2CC2CCCCC2)c2ccccc12 [7/9] |  |  | pIC50 (FF) [3]: 8.7; pIC50 (REN) [4]: 9.0
33 | C[C@H](NS(=O)(=O)c1ccc(-c2sc(C(=O)NC3CCS(=O)(=O)CC3)nc2CC2CCCC2)c2ccccc12)C(F)(F)F [8/11] |  |  | IC50 [1]: 1 nM; IC50 [2]: 1 nM
34 | CC(C)(C)NS(=O)(=O)c1ccc(-c2sc(C(=O)NC3CCS(=O)(=O)CC3)cc2CC2CCCCC2)c2ccccc12 [Example 307/1] | nt/8.4/8.5 | nt/8.4/8.5 | 
35 | CCC1CCN(C(=O)c2nc(C(=O)NCC(C)(C)O)sc2-c2ccc(S(=O)(=O)NC(C)(C)C)c3ccccc23)CC1 [304/10] | nt/7.5/7.5 | nt/7.5/7.5 | 
36 | C[C@H](NS(=O)(=O)c1ccc(-c2sc(C(=O)NCC(C)(C)O)nc2CC2CCC2)c(Cl)c1)C(F)(F)F [21/19] | nt/7.9/7.9 | nt/7.9/7.9 | 
37 | CC(C)(CCO)NC(=O)c1cc(-c2sc(C(=O)NC3CCS(=O)(=O)CC3)nc2CC2CCCCC2)cc(C2(C)CC2)c1 [10/3] | nt/7.9/8.0 | nt/7.9/8.0 | 
38 | CCC(C)(C)NS(=O)(=O)c1ccc(-c2sc(C(=O)NC3CCOCC3)nc2C(=O)N2CCC(C)CC2)c2ccccc12 [304/15] | nt/7.6/7.7 | nt/7.6/7.7 | 
39 | CC(C)(C)c1cc(-c2nc(C(=O)N[C@H]3C[C@H](C(=O)O)C3)sc2CC2CCCCC2)cc(C2(C)CC2)c1 [Example 25, trans-3-(4-(3-(tert-Butyl)-5-(1-methylcyclopropyl)phenyl)-5-(cyclohexylmethyl)thiazole-2-carboxamido)cyclobutanecarboxylic acid] |  |  | pIC50 (FF) [3]: nt/6.1/6.1; pIC50 (REN) [4]: nt/6.1/6.1
